Source: US10954269B2, “Anti-inflammatory tripeptides” (Dr. August Wolff Gmbh & Co. KG Arzneimittel, priority 2013, dated 2021)

Experiments:
[1] = system: primary murine T-cells; experiment: Cytokine secretion on protein level in activated primary murine T-cells (13-plex FACS / Luminex, supernatant); format: cell-based, C57BL/6 mice; details: for IL-1 cytokine concentration / IL-2 cytokine concentration / IL-4 cytokine concentration / IL-5 cytokine concentration / IL-6 cytokine concentration / IL-10 cytokine concentration / IL-13 cytokine concentration / IL-17 cytokine concentration / IL-21 cytokine concentration / IL-22 cytokine concentration / IL-27 cytokine concentration / TNF-α cytokine concentration / IFN-γ cytokine concentration: substance 10^−9M
Outline: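 T-cells from secondary lymphatic organs of naïve C57BL/6 mice, stimulated with PMA/Ionomycin or IFN-γ; supernatant cytokines measured by 13-plex FACS 48 h and 72 h after stimulation. In another run, PMA/Ionomycin-stimulated cells received compounds at 10^−7, 10^−9 and 10^−11 M, with IFN-γ, IL-17 and IL-10 measured by Luminex.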

[2] = system: human keratinocyte cell line (HaCaT); experiment: Cytokine secretion on protein level in activated human keratinocyte cell line HaCaT (13-plex FACS / Luminex, supernatant); format: cell-based; details: substance 10^−9M
Outline: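 First, T-cells are isolated from healthy donors' blood. Next, they and HaCaT keratinocytes are activated for 48 h with PMA/Ionomycin or IFN-γ in the presence of tripeptides. Finally, secreted cytokines are quantified in supernatants by 13-plex FACS at 48 and 72 h.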

[3] = primary murine T-cells stimulated with IFN-γ
[4] = primary murine T-cells stimulated with PBS
[5] = primary murine T-cells stimulated with PMA/Ionomycin

Substance: N^α,N^α-dimethyl-(L)-Lys-(D)-Pro-N^α-methyl-(L)-Val-OH [Example 5]
- secretion / expression of pro-inflammatory cytokines (supernatant) ([1]; activated primary murine T-cells): immunomodulatory effects were seen
- IL-1 cytokine concentration [1, 3]: 49.65 pg/mL
- IL-2 cytokine concentration [1, 3]: 89.76 pg/mL
- IL-4 cytokine concentration [1, 3]: 47.55 pg/mL
- IL-5 cytokine concentration [1, 3]: 263.27 pg/mL
- IL-6 cytokine concentration [1, 3]: 127.92 pg/mL
- IL-10 cytokine concentration [1, 3]: 1359.92 pg/mL
- IL-13 cytokine concentration [1, 3]: 0 pg/mL
- IL-17 cytokine concentration [1, 3]: 97.22 pg/mL
- IL-21 cytokine concentration [1, 3]: 0 pg/mL
- IL-22 cytokine concentration [1, 3]: 32.03 pg/mL
- IL-27 cytokine concentration [1, 3]: 20.07 pg/mL
- TNF-α cytokine concentration [1, 3]: 24.23 pg/mL
- IFN-γ cytokine concentration [1, 4]: 232.8 pg/mL
- IL-1 cytokine concentration [1, 4]: 56.42 pg/mL
- IL-2 cytokine concentration [1, 4]: 151.25 pg/mL
- IL-4 cytokine concentration [1, 4]: 53.6 pg/mL
- IL-5 cytokine concentration [1, 4]: 209.32 pg/mL
- IL-6 cytokine concentration [1, 4]: 117.95 pg/mL
- IL-10 cytokine concentration [1, 4]: 1311.94 pg/mL
- IL-13 cytokine concentration [1, 4]: 0 pg/mL
- IL-17 cytokine concentration [1, 4]: 0 pg/mL
- IL-21 cytokine concentration [1, 4]: 13.71 pg/mL
- IL-22 cytokine concentration [1, 4]: 27.66 pg/mL
- IL-27 cytokine concentration [1, 4]: 81.64 pg/mL
- TNF-α cytokine concentration [1, 4]: 32.89 pg/mL
- IFN-γ cytokine concentration [1, 5]: 2075.42 pg/mL
- IL-1 cytokine concentration [1, 5]: 178.79 pg/mL
- IL-2 cytokine concentration [1, 5]: 112.62 pg/mL
- IL-4 cytokine concentration [1, 5]: 81.4 pg/mL
- IL-5 cytokine concentration [1, 5]: 246.42 pg/mL
- IL-6 cytokine concentration [1, 5]: 189.2 pg/mL
- IL-10 cytokine concentration [1, 5]: 1233.45 pg/mL
- IL-13 cytokine concentration [1, 5]: 0 pg/mL
- IL-17 cytokine concentration [1, 5]: 0 pg/mL
- IL-21 cytokine concentration [1, 5]: 67.28 pg/mL
- IL-22 cytokine concentration [1, 5]: 29.38 pg/mL
- IL-27 cytokine concentration [1, 5]: 51.58 pg/mL
- TNF-α cytokine concentration [1, 5]: 29.15 pg/mL
- IL-1 cytokine concentration ([2]; HaCaT stimulated with IFN-γ): 0 pg/mL
- IL-2 cytokine concentration ([2]; HaCaT stimulated with IFN-γ): 0 pg/mL
- IL-4 cytokine concentration ([2]; HaCaT stimulated with IFN-γ): 0 pg/mL
- IL-5 cytokine concentration ([2]; HaCaT stimulated with IFN-γ): 0 pg/mL
- IL-6 cytokine concentration ([2]; HaCaT stimulated with IFN-γ): 415.82 pg/mL
- IL-9 cytokine concentration ([2]; HaCaT stimulated with IFN-γ): 0 pg/mL
- IL-10 cytokine concentration ([2]; HaCaT stimulated with IFN-γ): 41.86 pg/mL
- IL-12p70 cytokine concentration ([2]; HaCaT stimulated with IFN-γ): 0 pg/mL
- IL-13 cytokine concentration ([2]; HaCaT stimulated with IFN-γ): 1974.31 pg/mL
- IL-17 cytokine concentration ([2]; HaCaT stimulated with IFN-γ): 0 pg/mL
- IL-22 cytokine concentration ([2]; HaCaT stimulated with IFN-γ): 0 pg/mL
- TNF-α cytokine concentration ([2]; HaCaT stimulated with IFN-γ): 0 pg/mL
- IFN-γ cytokine concentration ([2]; HaCaT stimulated with PBS): 0 pg/mL
- IL-1 cytokine concentration ([2]; HaCaT stimulated with PBS): 0 pg/mL
- IL-2 cytokine concentration ([2]; HaCaT stimulated with PBS): 149.51 pg/mL
- IL-4 cytokine concentration ([2]; HaCaT stimulated with PBS): 152.8 pg/mL
- IL-5 cytokine concentration ([2]; HaCaT stimulated with PBS): 133.49 pg/mL
- IL-6 cytokine concentration ([2]; HaCaT stimulated with PBS): 218.63 pg/mL
- IL-9 cytokine concentration ([2]; HaCaT stimulated with PBS): 28.51 pg/mL
